In brackets after ≈: the same amount, converted by molar mass.
Legend:
[1] = test system: Escherichia coli; assay: Antibacterial activity against Escherichia coli NCIM 2685 by broth microdilution method; assay type: functional
[2] = test system: Rattus norvegicus; assay: Antihyperglycemic activity in STZ/nicotinamide-induced type2 diabetic Wistar rat model assessed as blood glucose level at 100 mg/kg, po measured for 14 days post dose; assay type: functional
[3] = test system: Staphylococcus aureus; assay: Antibacterial activity against Staphylococcus aureus NCTC 7447 by agar diffusion method; assay type: functional
[4] = test system: Staphylococcus aureus; assay: Antibacterial activity against Staphylococcus aureus NCTC 7447 by serial dilution method; assay type: functional
[5] = target: T1, Prostaglandin G/H synthase 2 (Homo sapiens, UniProt P35354); assay: Inhibition of recombinant human COX2 assessed as reduction in PGF2alpha production from PGH2 by enzyme immunoassay
T1 sequence (P35354 whole entry): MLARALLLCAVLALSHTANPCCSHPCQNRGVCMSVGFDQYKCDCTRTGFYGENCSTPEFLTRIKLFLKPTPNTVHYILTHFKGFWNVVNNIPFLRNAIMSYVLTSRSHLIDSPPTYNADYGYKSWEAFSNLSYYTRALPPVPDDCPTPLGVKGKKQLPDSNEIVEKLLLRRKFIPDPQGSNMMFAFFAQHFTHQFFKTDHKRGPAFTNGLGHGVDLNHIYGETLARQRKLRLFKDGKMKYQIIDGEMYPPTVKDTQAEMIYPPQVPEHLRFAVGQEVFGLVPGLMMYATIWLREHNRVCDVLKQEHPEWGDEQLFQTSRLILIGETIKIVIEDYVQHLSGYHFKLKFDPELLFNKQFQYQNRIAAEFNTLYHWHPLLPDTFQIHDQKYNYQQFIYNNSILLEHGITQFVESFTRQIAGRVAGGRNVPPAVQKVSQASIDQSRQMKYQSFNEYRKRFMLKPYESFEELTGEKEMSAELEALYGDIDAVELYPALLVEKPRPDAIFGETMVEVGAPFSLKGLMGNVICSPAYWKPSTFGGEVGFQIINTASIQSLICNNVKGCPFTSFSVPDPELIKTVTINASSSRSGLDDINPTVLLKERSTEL

[6] = target: T2, Prostaglandin G/H synthase 1 (Ovis aries, UniProt P05979); assay: Inhibition of recombinant ovine COX1 assessed as reduction in PGF2alpha production from PGH2 by enzyme immunoassay
T2 sequence (P05979 whole entry): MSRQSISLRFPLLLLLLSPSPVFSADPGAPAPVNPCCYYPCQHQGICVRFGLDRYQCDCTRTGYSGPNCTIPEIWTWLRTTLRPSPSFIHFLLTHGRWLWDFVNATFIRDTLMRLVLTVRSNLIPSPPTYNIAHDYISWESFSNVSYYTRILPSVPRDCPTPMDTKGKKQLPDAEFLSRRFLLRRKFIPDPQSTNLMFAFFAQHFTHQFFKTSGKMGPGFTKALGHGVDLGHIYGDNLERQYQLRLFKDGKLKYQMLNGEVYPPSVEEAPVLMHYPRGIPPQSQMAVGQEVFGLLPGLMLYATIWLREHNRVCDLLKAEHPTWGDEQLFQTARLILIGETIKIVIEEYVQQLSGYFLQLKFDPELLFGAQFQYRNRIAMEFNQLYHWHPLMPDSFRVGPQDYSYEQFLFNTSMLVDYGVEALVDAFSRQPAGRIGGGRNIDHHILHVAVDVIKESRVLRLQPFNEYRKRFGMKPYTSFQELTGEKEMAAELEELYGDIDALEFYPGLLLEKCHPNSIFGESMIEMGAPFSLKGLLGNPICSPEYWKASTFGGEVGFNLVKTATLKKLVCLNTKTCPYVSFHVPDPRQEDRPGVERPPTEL

[7] = Selectivity index, ratio of IC50 for recombinant ovine COX1 to IC50 for recombinant human COX2
[8] = Antidiabetic activity in albino mouse assessed as reduction in alloxan-induced plasma glucose level at 0.2 mmol/kg, po administered 3 days post alloxan challenge measured 1 to 3 hrs post dose by copper reduction based colorimetric assay relative to control; assay type: functional, organism-based
[9] = Antifungal activity against Penicillium notatum NCIM 745 by broth microdilution method; assay type: functional; settings: Penicillium chrysogenum
[10] = test system: Bacillus subtilis; assay: Antibacterial activity against Bacillus subtilis NCIM 2711 by broth microdilution method; assay type: functional
[11] = test system: Mycobacterium tuberculosis; assay: Antimycobacterial activity against Mycobacterium tuberculosis H37Rv; assay type: functional
[12] = test system: Bovine viral diarrhea virus 1; assay: Antiviral activity against Bovine viral diarrhea virus 1 infected in MDBK cells; assay type: functional, cell-based; settings: Bovine viral diarrhea virus isolates and strains
[13] = test system: Bovine viral diarrhea virus 1; assay: Potency index, ratio of ribavirin EC50 to compound EC50 for Bovine viral diarrhea virus 1 infected in MDBK cells; assay type: functional
[14] = test system: Aspergillus fumigatus; assay: Antifungal activity against Aspergillus fumigatus NCIM 535 by broth microdilution method; assay type: functional
[15] = test system: Bacillus subtilis; assay: Antibacterial activity against Bacillus subtilis by broth dilution method; assay type: functional
[16] = test system: Escherichia coli; assay: Antibacterial activity against Escherichia coli after 16 hrs by serial dilution method; assay type: functional
[17] = test system: Staphylococcus aureus; assay: Antibacterial activity against Staphylococcus aureus after 16 hrs by serial dilution method; assay type: functional
[18] = test system: Bacillus subtilis; assay: Antibacterial activity against Bacillus subtilis after 16 hrs by serial dilution method; assay type: functional
[19] = test system: Pseudomonas aeruginosa; assay: Antibacterial activity against Pseudomonas aeruginosa after 16 hrs by serial dilution method; assay type: functional
[20] = test system: Bacillus cereus; assay: Antibacterial activity against Bacillus cereus; assay type: functional
[21] = test system: Staphylococcus aureus; assay: Antibacterial activity against Staphylococcus aureus; assay type: functional
[22] = test system: Escherichia coli; assay: Antibacterial activity against Escherichia coli MTCC 443 after 24 hrs by broth dilution method; assay type: functional; settings: MTCC 443, 24 h
[23] = Antiproliferative activity against human NPC-TW01 cells after 72 hrs by MTT assay; assay type: functional; settings: NPC-TW01, 72 h
[24] = Antiproliferative activity against human NCI-H226 cells after 72 hrs by MTT assay; assay type: functional; settings: NCI-H226, 72 h

Question: With `O=C1/C(=C\c2cn(-c3ccccc3)nc2-c2ccc(O)cc2)SC(=S)N1c1ccc(Cl)cc1` as the molecule, how does the IC50 [1] read?
Answer: 62.5 µg/mL (≈ 128 µM)

Question: For `COc1cc2c(cc1OC)C(=O)C(Cc1cn(-c3ccc(C)cc3)nc1-c1cc3ccccc3oc1=O)C2` (centres undefined), which Activity [2] is on record?
Answer: 115 mg/dL

Question: Which “inhibition zone (IZ)” value [3] does the source give for `CC(=O)Nc1ccc(/N=N/c2c(N)nn3c(-c4ccccc4Cl)c(C#N)c(=O)[nH]c23)cc1` here?
Answer: 2.5 cm

Question: What about the MIC [4] of the same molecule?
Answer: 110 µg/mL (≈ 246 µM)

Question: With `CC(=O)NC1=NN(C(C)=O)C(c2cn(-c3ccccc3)nc2-c2ccc(O)cc2)S1` (centres undefined) as the molecule, how does the IC50 [5] read?
Answer: 14 µM

Question: And the IC50 [6]?
Answer: 73 µM

Question: And the Ratio IC50 [7]?
Answer: 5.21

Question: With `Cc1c(Br)c(C(F)(F)F)nn1-c1ccc(S(=O)(=O)NC(=O)Nc2ccccc2)cc1` as the molecule, how does the inhibition [8] read?
Answer: 20%

Question: Which MIC [1] does the source give for `O=C(O)n1nc(-c2ccccc2)cc1-c1cc2ccccc2nc1Cl` here?
Answer: 43 µg/mL (≈ 123 µM)

Question: What about the MIC [9] of the same molecule?
Answer: 57 µg/mL (≈ 163 µM)

Question: What about the MIC [10] of the same molecule?
Answer: 54 µg/mL (≈ 154 µM)

Question: For `O=C1c2ccccc2NC(c2cn(-c3ccccc3)nc2-c2ccccc2)N1c1ccc(Cl)cc1` (centres undefined), which MIC [11] is on record?
Answer: 12.5 µg/mL (≈ 26.2 µM)

Question: For `NC(=O)c1ncn([C@@H]2O[C@H](CO)[C@@H](O)[C@H]2O)n1` [RIBAVIRIN], which EC50 [12] is on record?
Answer: 1.3 µM

Question: Which “Ratio EC50” value [13] does the source give for `Cc1ccc(-n2nc(C)c3c2CN(c2ccccc2)C3=O)cc1` here?
Answer: 10

Question: What about the EC50 [12] of the same molecule?
Answer: 0.12 µM

Question: Which MIC [9] does the source give for `Nc1ccc2nc(Cl)c(-c3cc(-c4ccccc4)nn3C(=O)O)cc2c1` here?
Answer: 46 µg/mL (≈ 126 µM)

Question: What about the MIC [10] of the same molecule?
Answer: 44 µg/mL (≈ 121 µM)

Question: And the MIC [14]?
Answer: 48 µg/mL (≈ 132 µM)

Question: For `COc1ccc(-n2c(-c3cn(-c4ccccc4)nc3-c3ccccc3)nc3ccccc3c2=O)cc1`, which MIC [15] is on record?
Answer: 62.5 µg/mL (≈ 133 µM)

Question: Which MIC [16] does the source give for `Sc1nncn1/N=C/c1cn[nH]c1-c1ccccc1` here?
Answer: 1.61 µg/mL (≈ 5.96 µM)

Question: And the MIC [17]?
Answer: 1.61 µg/mL (≈ 5.96 µM)

Question: And the MIC [18]?
Answer: 1.61 µg/mL (≈ 5.96 µM)

Question: What about the MIC [19] of the same molecule?
Answer: 1.61 µg/mL (≈ 5.96 µM)

Question: Which results are given for `O=C1C(c2cc(-c3ccc(Br)cc3)nn2-c2ccccc2)C(O)N(c2ccccc2)C(=S)N1c1ccccc1` (centres undefined)?
Answer: MIC [20]: 31.2 µg/mL (≈ 52.5 µM); MIC [21]: 31.2 µg/mL (≈ 52.5 µM)

Question: With `COc1ccc(-n2cc(CC3Cc4cc(OC)c(OC)cc4C3=O)c(-c3cc4ccccc4oc3=O)n2)cc1` (centres undefined) as the molecule, how does the Activity [2] read?
Answer: 138 mg/dL

Question: With `CC(=O)NC1=NN(C(C)=O)C(c2cn(-c3ccccc3)nc2-c2ccc([N+](=O)[O-])cc2)S1` (centres undefined) as the molecule, how does the IC50 [5] read?
Answer: 20 µM

Question: What about the IC50 [6] of the same molecule?
Answer: 70 µM

Question: And the Ratio IC50 [7]?
Answer: 3.5

Question: Which MIC [22] does the source give for `O=C1CSC(N2N=C(c3ccccc3[N+](=O)[O-])CC2c2cn(-c3ccccc3)nc2-c2ccc(F)cc2)=N1` (centres undefined) here?
Answer: 12.5 µg/mL (≈ 23.7 µM)

Question: Which GI50 [23] does the source give for `Nc1ccc(NC(=O)c2cc(-c3ccc(Cl)cc3)nn2-c2ccccc2)cc1` here?
Answer: 30 µM

Question: And the GI50 [24]?
Answer: 18 µM

Question: Which GI50 [23] does the source give for `Cc1ccc(-c2cc(C(=O)Nc3ccc(N)cc3)n(-c3ccc4ccccc4n3)n2)cc1` here?
Answer: 30 µM

Question: And the GI50 [24]?
Answer: 18 µM

Source: ChEMBL document CHEMBL3853301, “The therapeutic voyage of pyrazole and its analogs: A review” (Eur J Med Chem, 2016)
